Measured values published in publication PMC12406203 (Journal of Medicinal Chemistry, 2025).

Legend:
[1] = system: CSF1R
[2] = system: PIM3
[3] = system: PDPK1
[4] = system: SRC
[5] = system: ZAP70
[6] = system: MEK2
[7] = system: scopolamine-induced cognitive deficits in mice; assay: Passive avoidance task, scopolamine-induced amnesia; assay type: in vivo; details: for efficacy in PA task: 5 mg/kg i.p., scopolamine model; for step-through latency, retention trial (PA task): 10 mg/kg i.p., vs scopolamine-treated control mice
Excerpt: In the scopolamine model, the PA and NOR tasks were used for dose selection for further testing.
The mice had unlimited access to food and water prior to the experiment. Specified conditions for the maintenance of mice were ensured throughout the experiment, including tree bedding (Transwior, Poland) and cage enrichment (tunnels, nesting material, wooden igloos, etc.). For behavioral tests, the mice were selected randomly; each group consisted of 7–10 mice.
Scopolamine hydrobromide (Sigma-Aldrich, Poland) at the dose of 1 mg/kg was used to induce learning and memory deficits. For the in vivo tests, scopolamine was prepared in distilled water (Polfa Kutno, Poland) and was administered subcutaneously (s.c.) 30 min before behavioral tests during the acquisition (training) trial of PA and NOR tasks. […] They were administered intraperitoneally (i.p.) 60 min before the acquisition trial of the PA, NOR, and MWM tasks.
The PA apparatus (Panlab Harvard Apparatus, Spain) consists of a large white-colored illuminated compartment (26 cm × 26 cm × 34 cm) and a small black-colored compartment (13 cm × 7.5 cm × 7.5 cm), which are separated from each other by a guillotine gate (5 cm × 5 cm). The PA task is divided into two trials (i.e., the acquisition trial and the retention trial), each conducted 24 h apart. On the first day, during the acquisition trial (a conditioning phase), the test compounds (94 and 95, neflamapimod and vehicle) were injected. Also, before the acquisition trial, scopolamine or LPS was administered at selected time points. Then, each mouse was placed into the white compartment, and a 30 s habituation period began (guillotine gate is closed). After that, the guillotine gate was opened, and the mice were tested during the 180 s testing period. As soon as the mouse entered the black compartment of the PA device, the guillotine gate was closed and an electrical shock (intensity: 0.2 mA, duration: 2 s) was automatically applied through the grid floor. For each mouse, the latency between the opening of the guillotine gate and the mouse’s entering the black compartment was measured. On the next day, during the retention (drug-off) trial, the mice were placed again into the white compartment for a 30 s habituation period, and the latency to enter the black compartment was measured for each mouse.

[8] = target: T1, FGFR3 (Homo sapiens, UniProt P22607); assay: KINOMEscan; assay type: binding
T1 construct: purchased Eurofins DiscoverX, LLC; host or cells: E. coli (T7 phage) or HEK-293

[9] = target: T2, EGFR (Homo sapiens, UniProt P00533); assay: KINOMEscan; assay type: binding
T2 construct: purchased Eurofins DiscoverX, LLC; host or cells: E. coli (T7 phage) or HEK-293
T2 sequence (P00533 25-1210): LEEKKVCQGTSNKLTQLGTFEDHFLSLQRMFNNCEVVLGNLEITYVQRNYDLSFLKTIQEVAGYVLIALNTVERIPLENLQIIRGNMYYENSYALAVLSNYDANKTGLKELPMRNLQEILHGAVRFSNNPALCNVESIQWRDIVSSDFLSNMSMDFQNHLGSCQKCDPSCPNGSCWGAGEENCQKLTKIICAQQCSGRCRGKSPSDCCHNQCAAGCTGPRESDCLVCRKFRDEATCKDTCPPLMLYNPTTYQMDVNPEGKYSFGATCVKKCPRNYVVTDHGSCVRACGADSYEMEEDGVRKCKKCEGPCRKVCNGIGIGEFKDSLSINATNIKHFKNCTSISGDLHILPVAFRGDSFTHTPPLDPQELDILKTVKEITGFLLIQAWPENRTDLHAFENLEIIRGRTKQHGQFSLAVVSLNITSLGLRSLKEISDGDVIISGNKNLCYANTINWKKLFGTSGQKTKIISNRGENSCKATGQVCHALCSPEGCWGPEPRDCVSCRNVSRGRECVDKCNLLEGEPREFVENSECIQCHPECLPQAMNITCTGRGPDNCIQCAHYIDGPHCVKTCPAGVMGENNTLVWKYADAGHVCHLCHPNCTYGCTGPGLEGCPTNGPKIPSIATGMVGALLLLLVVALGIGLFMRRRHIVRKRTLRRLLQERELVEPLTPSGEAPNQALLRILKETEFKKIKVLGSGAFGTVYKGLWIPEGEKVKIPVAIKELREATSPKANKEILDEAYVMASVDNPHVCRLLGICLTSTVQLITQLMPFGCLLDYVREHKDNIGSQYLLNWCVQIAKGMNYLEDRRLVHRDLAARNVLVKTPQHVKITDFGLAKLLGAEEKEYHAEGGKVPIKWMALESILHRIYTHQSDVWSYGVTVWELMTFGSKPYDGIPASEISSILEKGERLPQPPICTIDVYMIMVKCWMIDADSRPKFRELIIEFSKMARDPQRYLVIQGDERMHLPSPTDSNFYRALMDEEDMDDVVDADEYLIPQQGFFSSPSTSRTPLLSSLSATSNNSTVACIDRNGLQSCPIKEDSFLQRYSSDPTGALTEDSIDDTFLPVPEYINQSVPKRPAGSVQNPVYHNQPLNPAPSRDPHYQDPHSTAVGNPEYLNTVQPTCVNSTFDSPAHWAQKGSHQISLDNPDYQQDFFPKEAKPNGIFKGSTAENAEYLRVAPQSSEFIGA

[10] = target: T3, PDPK1 (Homo sapiens, UniProt O15530); assay: KINOMEscan; assay type: binding
T3 construct: purchased Eurofins DiscoverX, LLC; host or cells: E. coli BL21-derived host (T7 phage) or HEK-293
T3 sequence (O15530 1-556): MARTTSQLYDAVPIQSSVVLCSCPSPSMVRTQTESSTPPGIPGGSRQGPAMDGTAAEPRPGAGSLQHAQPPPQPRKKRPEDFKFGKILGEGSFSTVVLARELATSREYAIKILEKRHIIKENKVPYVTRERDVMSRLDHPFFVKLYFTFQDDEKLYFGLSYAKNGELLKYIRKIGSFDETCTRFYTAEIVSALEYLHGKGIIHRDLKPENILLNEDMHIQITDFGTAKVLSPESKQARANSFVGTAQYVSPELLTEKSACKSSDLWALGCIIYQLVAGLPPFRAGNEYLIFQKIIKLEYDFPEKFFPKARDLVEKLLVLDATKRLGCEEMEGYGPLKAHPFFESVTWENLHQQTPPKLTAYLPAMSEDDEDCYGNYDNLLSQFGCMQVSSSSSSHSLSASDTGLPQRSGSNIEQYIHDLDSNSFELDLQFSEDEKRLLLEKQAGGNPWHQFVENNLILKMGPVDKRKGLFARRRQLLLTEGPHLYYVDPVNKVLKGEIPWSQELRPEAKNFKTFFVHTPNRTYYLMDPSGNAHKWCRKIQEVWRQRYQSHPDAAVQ

[11] = target: T4, KIT (Homo sapiens, UniProt P10721); assay: KINOMEscan; assay type: binding
T4 construct: purchased Eurofins DiscoverX, LLC; host or cells: E. coli (BL21-derived, T7 phage) or HEK-293
T4 sequence (P10721 26-976): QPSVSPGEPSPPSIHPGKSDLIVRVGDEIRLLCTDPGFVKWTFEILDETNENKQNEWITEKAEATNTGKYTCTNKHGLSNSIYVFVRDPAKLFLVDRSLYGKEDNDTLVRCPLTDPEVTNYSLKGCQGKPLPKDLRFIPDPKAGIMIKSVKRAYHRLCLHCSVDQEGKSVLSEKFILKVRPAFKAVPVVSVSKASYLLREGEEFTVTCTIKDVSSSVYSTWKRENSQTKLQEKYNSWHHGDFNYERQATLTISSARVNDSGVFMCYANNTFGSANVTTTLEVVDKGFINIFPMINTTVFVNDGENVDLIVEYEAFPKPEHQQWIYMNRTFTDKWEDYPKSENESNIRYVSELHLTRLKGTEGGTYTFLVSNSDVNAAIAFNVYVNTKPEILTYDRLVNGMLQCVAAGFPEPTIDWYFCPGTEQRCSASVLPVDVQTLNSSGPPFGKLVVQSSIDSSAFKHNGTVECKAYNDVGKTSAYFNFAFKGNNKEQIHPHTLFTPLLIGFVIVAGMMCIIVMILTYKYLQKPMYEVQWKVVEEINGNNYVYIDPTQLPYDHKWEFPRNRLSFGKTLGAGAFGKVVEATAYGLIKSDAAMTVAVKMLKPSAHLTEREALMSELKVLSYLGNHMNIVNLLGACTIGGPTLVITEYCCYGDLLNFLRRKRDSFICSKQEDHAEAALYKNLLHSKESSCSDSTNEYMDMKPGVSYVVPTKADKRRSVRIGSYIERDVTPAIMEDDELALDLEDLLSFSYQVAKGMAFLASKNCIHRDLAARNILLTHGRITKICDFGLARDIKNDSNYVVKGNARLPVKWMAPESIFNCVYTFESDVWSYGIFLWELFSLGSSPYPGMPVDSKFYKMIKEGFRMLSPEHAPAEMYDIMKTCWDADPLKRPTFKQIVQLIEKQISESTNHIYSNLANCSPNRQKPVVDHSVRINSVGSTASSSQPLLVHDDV

[12] = target: T5, CHEK1 (Homo sapiens, UniProt O14757); assay: KINOMEscan; assay type: binding
T5 construct: purchased Eurofins DiscoverX, LLC; host or cells: E. coli (T7 phage) or HEK-293
T5 sequence (O14757 1-476): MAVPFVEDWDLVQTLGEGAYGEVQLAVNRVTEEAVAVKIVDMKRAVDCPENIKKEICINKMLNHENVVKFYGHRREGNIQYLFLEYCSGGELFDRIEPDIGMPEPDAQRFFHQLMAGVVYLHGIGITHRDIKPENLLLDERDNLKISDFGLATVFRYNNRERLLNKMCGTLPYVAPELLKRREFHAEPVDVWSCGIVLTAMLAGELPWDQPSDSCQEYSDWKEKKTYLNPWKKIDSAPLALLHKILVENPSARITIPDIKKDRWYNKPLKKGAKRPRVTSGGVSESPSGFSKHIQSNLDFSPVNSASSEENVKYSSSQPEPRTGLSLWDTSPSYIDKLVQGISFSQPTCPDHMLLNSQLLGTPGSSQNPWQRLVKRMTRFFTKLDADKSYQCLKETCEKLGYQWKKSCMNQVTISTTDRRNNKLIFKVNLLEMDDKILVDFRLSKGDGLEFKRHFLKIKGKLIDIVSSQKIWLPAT

[13] = target: T6, AKT1 (Homo sapiens, UniProt P31749); assay: KINOMEscan; assay type: binding
T6 construct: purchased Eurofins DiscoverX, LLC; host or cells: E. coli BL21-derived (T7 phage) or HEK-293
T6 sequence (P31749 whole entry): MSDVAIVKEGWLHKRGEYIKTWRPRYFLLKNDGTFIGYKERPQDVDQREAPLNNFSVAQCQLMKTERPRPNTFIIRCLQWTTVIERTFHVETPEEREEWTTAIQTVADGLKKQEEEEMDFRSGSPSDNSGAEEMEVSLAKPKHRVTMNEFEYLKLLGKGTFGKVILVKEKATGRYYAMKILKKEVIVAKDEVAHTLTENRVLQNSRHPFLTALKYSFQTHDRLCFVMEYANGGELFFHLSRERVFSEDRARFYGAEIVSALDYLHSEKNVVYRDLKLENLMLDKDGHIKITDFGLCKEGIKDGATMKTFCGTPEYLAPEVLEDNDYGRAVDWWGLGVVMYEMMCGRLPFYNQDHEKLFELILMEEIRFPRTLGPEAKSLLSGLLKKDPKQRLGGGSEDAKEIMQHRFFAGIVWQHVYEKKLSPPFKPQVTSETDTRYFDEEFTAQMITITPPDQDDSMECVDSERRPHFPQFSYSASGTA

[14] = target: T7, ERBB2 (Homo sapiens, UniProt P04626); assay: KINOMEscan; assay type: binding
T7 construct: purchased Eurofins DiscoverX, LLC; host or cells: E. coli (T7 phage) or HEK-293

[15] = target: T8, KIT(D816V) (Homo sapiens, UniProt P10721, D816V); assay: KINOMEscan; assay type: binding
T8 construct: purchased Eurofins DiscoverX, LLC; host or cells: E. coli (BL21-derived, T7 phage) or HEK-293
T8 sequence (P10721 26-976 D816V): as the sequence (P10721 26-976) above, with D791V counted along it

[16] = target: T9, MAP3K4 (Homo sapiens, UniProt Q9Y6R4); assay: KINOMEscan; assay type: binding
T9 construct: purchased Eurofins DiscoverX, LLC; host or cells: E. coli (BL21-derived, T7 phage) or HEK-293
T9 sequence (Q9Y6R4 whole entry): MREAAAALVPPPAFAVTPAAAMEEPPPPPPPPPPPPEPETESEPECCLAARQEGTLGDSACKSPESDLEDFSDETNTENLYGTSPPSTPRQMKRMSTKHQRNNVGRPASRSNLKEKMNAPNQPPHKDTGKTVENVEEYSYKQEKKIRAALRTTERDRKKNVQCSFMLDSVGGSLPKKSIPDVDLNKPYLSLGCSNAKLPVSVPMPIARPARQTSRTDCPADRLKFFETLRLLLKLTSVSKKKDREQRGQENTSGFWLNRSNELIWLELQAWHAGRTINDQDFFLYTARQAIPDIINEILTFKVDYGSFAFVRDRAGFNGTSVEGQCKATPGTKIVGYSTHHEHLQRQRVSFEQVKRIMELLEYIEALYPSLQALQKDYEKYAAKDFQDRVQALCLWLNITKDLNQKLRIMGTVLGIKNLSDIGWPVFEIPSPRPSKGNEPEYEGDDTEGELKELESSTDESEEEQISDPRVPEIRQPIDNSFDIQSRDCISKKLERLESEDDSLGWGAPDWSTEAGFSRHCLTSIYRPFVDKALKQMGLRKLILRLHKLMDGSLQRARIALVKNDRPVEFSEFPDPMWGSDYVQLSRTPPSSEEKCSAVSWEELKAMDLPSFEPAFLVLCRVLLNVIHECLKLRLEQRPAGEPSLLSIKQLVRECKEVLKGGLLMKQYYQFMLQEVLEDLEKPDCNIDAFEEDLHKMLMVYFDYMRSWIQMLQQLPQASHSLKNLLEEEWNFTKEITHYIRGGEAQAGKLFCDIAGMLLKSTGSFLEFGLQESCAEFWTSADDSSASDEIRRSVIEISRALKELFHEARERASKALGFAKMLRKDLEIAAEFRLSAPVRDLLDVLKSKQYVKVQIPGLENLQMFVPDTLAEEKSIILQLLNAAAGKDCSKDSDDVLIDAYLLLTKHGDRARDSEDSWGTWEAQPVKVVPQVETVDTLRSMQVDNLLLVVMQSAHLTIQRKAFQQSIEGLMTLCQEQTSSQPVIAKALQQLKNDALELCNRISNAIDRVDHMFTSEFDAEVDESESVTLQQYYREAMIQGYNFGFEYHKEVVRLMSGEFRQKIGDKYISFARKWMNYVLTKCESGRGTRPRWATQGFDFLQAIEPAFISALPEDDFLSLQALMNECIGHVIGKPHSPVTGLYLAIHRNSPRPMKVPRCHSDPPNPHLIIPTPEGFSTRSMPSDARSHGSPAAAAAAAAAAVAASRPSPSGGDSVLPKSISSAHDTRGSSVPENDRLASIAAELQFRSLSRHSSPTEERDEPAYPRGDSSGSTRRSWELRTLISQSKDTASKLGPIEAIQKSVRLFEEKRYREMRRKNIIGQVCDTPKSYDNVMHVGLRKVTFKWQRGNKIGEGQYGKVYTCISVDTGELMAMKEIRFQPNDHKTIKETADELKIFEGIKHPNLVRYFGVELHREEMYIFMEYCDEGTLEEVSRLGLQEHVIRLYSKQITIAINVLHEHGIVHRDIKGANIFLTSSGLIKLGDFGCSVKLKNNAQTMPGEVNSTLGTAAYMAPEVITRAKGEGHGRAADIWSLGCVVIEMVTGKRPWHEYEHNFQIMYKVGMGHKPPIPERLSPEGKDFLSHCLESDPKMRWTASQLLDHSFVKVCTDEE

[17] = target: T10, RSK2 (Kin.Dom.1-N-terminal) (Homo sapiens, UniProt P51812); assay: KINOMEscan; assay type: binding
T10 construct: RSK2 (Kin.Dom.1-; purchased Eurofins DiscoverX, LLC; host or cells: E. coli BL21-derived host (T7 phage) or HEK-293
T10 sequence (P51812 68-327 limits assumed): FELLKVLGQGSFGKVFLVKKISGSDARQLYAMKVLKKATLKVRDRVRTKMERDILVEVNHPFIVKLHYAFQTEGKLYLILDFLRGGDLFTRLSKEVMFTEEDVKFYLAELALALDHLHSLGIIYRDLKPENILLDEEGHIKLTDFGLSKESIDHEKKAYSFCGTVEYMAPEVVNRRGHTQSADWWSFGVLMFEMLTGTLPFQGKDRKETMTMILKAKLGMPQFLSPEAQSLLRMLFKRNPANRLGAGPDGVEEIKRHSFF

[18] = system: PAK1

Compound | RA @ 1000nM [1] [%] | RA @ 10000nM [1] [%] | RA @ 1000nM [2] [%] | RA @ 10000nM [2] [%] | RA @ 1000nM [3] [%] | RA @ 10000nM [3] [%] | RA @ 1000nM [4] [%] | RA @ 10000nM [4] [%] | RA @ 1000nM [5] [%] | RA @ 10000nM [5] [%] | RA @ 1000nM [6] [%] | RA @ 10000nM [6] [%] | efficacy in PA task [7] | step-through latency, retention trial (PA task) [7] | RA @ 1000nM [8] [%] | RA @ 10000nM [8] [%] | RA @ 1000nM [9] [%] | RA @ 10000nM [9] [%] | RA @ 1000nM [10] [%] | RA @ 10000nM [10] [%] | other results
CN(C)CCNC(=O)c1cc2c(cnn2CC2CCCCC2)cc1Cc1ccc(F)cc1F [Compound 95, 1-(Cyclohexylmethyl)-5-(2,4-difluorobenzyl)-N-(2-(dimethylamino)ethyl)-1H-indazole-6-carboxamide] | 100 | 79 | 100 | 100 | 100 | 87 | 100 | 93 | 100 | 100 | 95 | 100 | not statistically significantly effective | statistically significant prolonged step-through latency | 100 | 92 | 100 | 100 | 100 | 87 | RA @ 1000nM [11]: 100%; RA @ 10000nM [11]: 100%; RA @ 1000nM [12]: 100%; RA @ 10000nM [12]: 100%; RA @ 1000nM [13]: 100%; RA @ 10000nM [13]: 100%; RA @ 1000nM [14]: 84%; RA @ 10000nM [14]: 78%; RA @ 1000nM [15]: 96%; RA @ 10000nM [15]: 94%; RA @ 1000nM [16]: 100%; RA @ 10000nM [16]: 60%; RA @ 1000nM [17]: 94%; RA @ 10000nM [17]: 94%; RA @ 1000nM [18]: 100%; RA @ 10000nM [18]: 93%
CC(C)Cn1ncc2cc(Cc3ccc(F)cc3F)c(C(=O)NCCN(C)C)cc21 [Compound 94, 5-(2,4-Difluorobenzyl)-N-(2-(dimethylamino)ethyl)-1-isobutyl-1H-indazole-6-carboxamide] | 100 | 86 | 100 | 100 | 88 | 74 | 100 | 94 | 100 | 79 | 86 | 80 | not statistically significantly effective | statistically significant prolonged step-through latency | 100 | 100 | 98 | 69 | 88 | 74 | RA @ 1000nM [11]: 100%; RA @ 10000nM [11]: 100%; RA @ 1000nM [12]: 100%; RA @ 10000nM [12]: 100%; RA @ 1000nM [13]: 100%; RA @ 10000nM [13]: 75%; RA @ 1000nM [14]: 74%; RA @ 10000nM [14]: 81%; RA @ 1000nM [15]: 94%; RA @ 10000nM [15]: 100%; RA @ 1000nM [16]: 49%; RA @ 10000nM [16]: 100%; RA @ 1000nM [17]: 86%; RA @ 10000nM [17]: 65%; RA @ 1000nM [18]: 96%; RA @ 10000nM [18]: 94%
